The text below walks through data of US9408827B2, “Sheet for cutaneous application containing vitamin E or an ester thereof” (IneSalus Corp., priority 2013, dated 2016).

Series [1] deals with reconstituted human epidermis Epi-200 EpiDerm™. As to the kind of experiment: Evaluation of the cellular vitality by MTT assay (EpiDerm Skin Irritation Test EPI-200-SIT).
Description: The tolerability of the sheets according to the invention was evaluated by means of an in-vitro assay on models of reconstituted epidermis for evaluation of the cumulative irritation.
The assay in question was based on the In vitro Epiderm™ Skin Irritation Test (EPI-200-SIT) developed by the MatTek Corporation, which uses the model of reconstituted human epidermis Epi-200 EpiDerm™.
The assay consists in topical application of the material under testing on the reconstituted epidermis for contact times equal to or greater than 18 hours. The irritation potential is determined by means of evaluation of the cellular vitality using the MTT assay.
Conditions for Conducting the Assay for Evaluation of the Cellular Vitality
Tissue used: EPI-200-SIT EpiDerm™
Culture medium: EPI-100-MM-HCF-60
(§1) Incubation conditions: +37° C. in a 5% CO2 atmosphere
(§2) Treatment with the sample: • continuous contact and incubation for 18 hours (single) • continuous contact and incubation for 7 days (double)
(§3) Application was carried out by applying about 1 cm^2 of sample (i.e. of the sheet according to the invention obtained as per the example given above) per insert.
(§4) Controls Performed for the First Evaluation (18 Hours): • Negative control after 18 hours: inserts not treated • Positive control: inserts treated with 0.5% SDS (Sodium Dodecylsulphate) in sterile water during 18 hours of incubation; […]
Series [2] shares this test system. Nature of the series: Release of IL-1α in the culture medium (ELISA). Particulars: 18-hour treatment; Tukey Kramer Multiple Comparisons Test. Background: In an ELISA, binding on a coated surface is turned into a signal by an enzyme label.
Description: Tissue used: EPI-200-SIT EpiDerm™
Culture medium: EPI-100-MM-HCF-60
as §1, §2
Controls Performed for the First Evaluation (18 Hours): • Negative control after 18 hours: inserts not treated • Positive control: inserts treated with 0.5% SDS (Sodium Dodecylsulphate) in sterile water during 18 hours of incubation;
Controls Performed for the 7-Day Evaluation: • Negative control: inserts not treated with the sample and kept for 7 days in the same incubation conditions as those treated with the sample.
Evaluation of the Release of IL-1α in the Culture Medium:
Evaluation in the culture medium obtained after the period of incubation of the sample with EPI-200. The release is measured by means of specific ELISA.
The test system is the same in series [3]. Nature of the series: Release of lactate dehydrogenase (LDH) in the culture medium. Conditions: 18-hour treatment; Tukey Kramer Multiple Comparisons Test.
Excerpt: Further information for better defining the irritation potential was obtained from subsequent measurement of the following parameters: • evaluation of the release, in the culture medium, of the lactate dehydrogenase (LDH), a cytoplasmic enzyme, release of which indicates loss of integrity of the cellular membrane; • evaluation of the release, in the culture medium, of pro-inflammatory cytokine by means of ELISA (Enzyme Linked Immunosorbent Assay).
Tissue used: EPI-200-SIT EpiDerm™
Culture medium: EPI-100-MM-HCF-60
as §1, §2, §3, §4
Evaluation in the culture medium obtained after the incubation period of the sample with the epidermis model. The culture medium is incubated with a specific reagent so as to allow quantitive determination of the lactate dehydrogenase at 490 nm.

`CCCCCCCCCCCCOS(=O)(=O)[O-].[Na+]` [Positive control, Sodium Dodecylsulphate]: the “Average value of OD ± SD (MTT)” value in series [1] (18-hour continuous contact and incubation) came to 0.185 ± 0.004. Also, the “Average value of the % vitality (MTT)” value in series [1] (18-hour treatment, relative to negative control = 100%) is on record as 8.40 ± 0.17%. For the same molecule, in series [2], the “Release of IL-1α, statistical comparison in relation to the negative control” value is on record as “*** (*** p < 0.001 extremely significant variation)”. In series [3], the “Release of LDH, statistical comparison in relation to the negative control” value is recorded as “*** (*** p < 0.001 extremely significant variation)”.
